Laboratory results published in patent US11033604B2, “Reagents and methods for treating bacterial infection” (priority 2018, dated 2021).
Positions of bridges follow the written chain, without caps; N, C: chain ends. Non-standard residues stand in square brackets, D forms with d. No end group written: not given here.

Assays:
[1] = tested on: S. aureus MN8+mCherry biofilms; assay: Fluorescence microscopy of biofilm adhesion to glass; type: cell-based, Staphylococcus aureus; details: 80 μM, 24 h, 37° C.
Protocol: (§1) FIG. 2. S. aureus biofilm structures become less robust when grown in the presence of designed peptide inhibitors. (A) S. aureus MN8+mCherry™ biofilms were grown on glass substrates for 24 hours and then cells were washed and fixed. Addition of peptide inhibitors (80 μM) reduced adhesion to the slide, causing cells to detach during the wash step. Images are representative of duplicate wells. (B) In S. aureus SH1000 WT biofilms grown in regular LB medium, PSM amyloid fibrils are visible as deposits in spaces between cells (left). Upon addition of the designed peptide AP90 (80 μM), no extracellular fibril deposits were observed (right).
(§2) To further investigate the ability of designed peptides to inhibit PSM amyloid formation, fluorescent (mCherry™ ) MN8 biofilms were grown in culture plates with glass bottom wells. After 24 hours at 37° C. the biofilms were gently rinsed with pipetted saline to remove unattached biomass and the remaining attached cells were fixed and imaged. […] These qualitative results are in good agreement with the quantitative results obtained for amyloid inhibition in FIG. 1B. Addition of anti-α-sheet peptides triggered a significant reduction in PSM amyloid formation as measured by ThT fluorescence and also served to weaken the S. aureus biofilms by reducing the PSM amyloid fibril content of the extracellular matrix. […]

S. mutans biofilm = assay: TEM of S. mutans biofilm; type: cell-based, Streptococcus mutans; details: 100 μM (FIG. 16)
Protocol: FIG. 16. Synthetic α-sheet peptides as a novel anti-biofilm agent for the dental pathogen, S. mutans. A) ThT fluorescence of S. mutans biofilms decreases upon addition of synthetic α-sheet peptides AP193, AP407, and AP90. […] D) synthetic α-sheet peptides added to S. mutans grown on hydroxyapatite ceramic particles led to significant decreases in ThT fluorescence.
The phenotypic effects of synthetic α-sheet peptides were determined using TEM.

[2] = tested on: S. aureus SH1000 WT biofilms; assay: TEM of biofilm extracellular fibrils; type: cell-based, Staphylococcus aureus; details: LB medium, 80 μM
Protocol: as §1, §2

E. coli UTI89 = assay: Bacterial growth and biofilm versus planktonic proportion; type: cell-based; details: UTI89 biofilm cultures
Excerpt: (§3) FIG. 12. […] Error bars indicate standard deviation of the mean of at least three replicates. Significance values are p<0.05: *, p<0.01: **, p<0.001: ***.
(§4) UTI89 biofilms were also cultivated in the presence of an unstructured peptide, P1, which retains a mixture of L- and D-amino acids but lacks the α-sheet secondary structure of AP193.

GERB 319 = assay: ThT assay of EM amyloid in clinical isolate biofilms; type: cell-based, E. coli; details: antibiotic resistant clinical isolate GERB 319
Excerpt: (§5) FIG. 12. Synthetic α-sheet peptides inhibit amyloid formation in uropathogenic E. coli biofilms. […] E) AP193 is also effective in reducing the EM amyloid content of two clinical isolate strains, GERB 319 and GERB 337. Error bars indicate standard deviation of the mean of at least three replicates. Significance values are p<0.05: *, p<0.01: **, p<0.001: ***.
(§6) To extend the applicability of synthetic α-sheet peptides beyond the well-characterized UTI89 system, we obtained several E. coli isolates from pediatric patients who presented with urinary tract infections.

GERB 337 = assay: as above; type: cell-based, E. coli; details: antibiotic resistant clinical isolate GERB 337
Excerpt: as §5, §6

[3] = tested on: E. coli UTI89 WT biofilms; assay: In situ ThT assay of EM amyloid in E. coli UTI89 WT biofilms; type: cell-based
Protocol: as §3
Biofilms of the cystitis E. coli isolate UTI89 were cultivated in YESCA broth with 4% DMSO at 26° C., conditions which are known to elicit increased curli biogenesis. Varying doses of the dimeric α-sheet peptide, AP193, were also added to the cultures at the time of inoculation. AP193 is covalently linked through a single cysteine in each of its constituent monomers. Since DMSO was already present in the biofilm growth medium, AP193 stocks were supplemented with 4% DMSO to improve solubility, and the buffer solution was maintained at high pH (sodium carbonate, pH 9.6) to retain oxidation of the disulfide bond. After 48 hours of growth, biofilms were washed, homogenized, and stained with ThT.
as §4

[4] = tested on: E. coli UTI89 WT biofilms; assay: Antibiotic susceptibility test with gentamicin (live/dead ratio and CFU counts); type: cell-based; details: 150 μg/mL gentamicin, 6 h, vs peptide-free controls
Protocol: FIG. 13. Synthetic α-sheet peptides increase antibiotic susceptibility of uropathogenic E. coli biofilms, as measured by A) live/dead fluorescence ratio and (B) CFU counts. Error bars indicate standard deviation of the mean of at least three replicates.
To test this hypothesis, biofilms of E. coli UTI89 WT were grown in YESCA broth+4% DMSO in 48 well plates at 26° C. Media was removed 6 h prior to the end of the 48 h incubation period and replaced either with fresh media alone or fresh media containing 150 μg/mL gentamicin (Gm), an aminoglycoside antibiotic. After the 6 h incubation, biofilms were harvested by aspirating the planktonic cells, rinsing the biofilm once with PBS, and then resuspending the biofilm in PBS. Biofilm suspensions were homogenized with a probe sonicator and subjected to one of two processing protocols. In the first assay, the bacterial density of each biofilm suspension was normalized by absorbance at 670 nm and then bacteria were stained with Live/Dead (Syto9/propidum iodide) to obtain a fluorescent readout of viability. In the second assay, biofilm suspensions were serially diluted in sterile PBS and then plated on agar plates to obtain colony-forming unit (CFU) counts.

For “RGEmNlCwMNEYSGWcMnLkMGR (RGE[dM]N[dL]C[dW]MNEYSGW[dC]M[dN]L[dK]MGR; disulfide 7-16 (inferred)) [AP407, variant of AP90 with a disulfide bond]”, which “Biofilm attachment to glass after rinsing” value [1] is on record?
Its value is “caused nearly all of the biofilm to detach”.

With “RGEmNlSwMNEYSGWtMnLkMGR (RGEMNLSWMNEYSGWTMNLKMGR; not fully specified (residues 4, 6, 8, 16, 18, 20); printed as RGEmNlSwMNEYSGWtMnLkMGR) [AP90]” as the substance, how does the “Fibrillar structures in extracellular material by TEM” value (S. mutans biofilm) read?
The value was “such structures were not observed”.

And the “Extracellular PSM amyloid fibril deposits by TEM” value [2]?
Its value is “amyloid fibrils could not be found”.

How did the “Bacterial killing / growth inhibition” value (E. coli UTI89) turn out when “RGEmNyFwMNEYYGWtMnCkMGR (RGE[dM]N[dY]F[dW]MNEYYGW[dT]M[dN]C[dK]MGR) [AP193, hydrophobic AP90 derivative, variant to support different chemical coupling reactions]” was run?
Its value is “does not kill bacteria or inhibit their growth”.

And the “ThT fluorescence of biofilm” value (GERB 319)?
The value was “significant decrease in ThT fluorescence”.

And the “ThT fluorescence of biofilm” value (GERB 337)?
Its value is “significant decrease in ThT fluorescence”.

And the “EM amyloid content of biofilm (ThT fluorescence), varying doses” value ([3]; YESCA broth + 4% DMSO, 26° C., 48 h)?
The value was “dose-dependent reduction in ThT fluorescence”.

What about the “ThT fluorescence of biofilm at highest dose” value ([3]; highest dose) of the same substance?
Its value is “reduced the ThT fluorescence of WT biofilms to levels near those of the ΔcsgA strain”.

And the “Efficacy of gentamicin (Gm) against biofilms (live/dead ratio, CFU counts)” value [4]?
Its value is “improved the efficacy of Gm”.
